In paper PMC9260854 (Biochemistry, 2022):
Where a chain is given by its changes, count along the chain named. Where two headings read alike, the source gives them in different places.

Columns and labels:
[1] = molecular target: T1, native non-tagged SULT2B1b (Homo sapiens, UniProt O00204); assay: Initial-rate 1-HP sulfonation inhibition, native; type: biochemical; conditions: native enzyme
T1 sequence (O00204 1-365): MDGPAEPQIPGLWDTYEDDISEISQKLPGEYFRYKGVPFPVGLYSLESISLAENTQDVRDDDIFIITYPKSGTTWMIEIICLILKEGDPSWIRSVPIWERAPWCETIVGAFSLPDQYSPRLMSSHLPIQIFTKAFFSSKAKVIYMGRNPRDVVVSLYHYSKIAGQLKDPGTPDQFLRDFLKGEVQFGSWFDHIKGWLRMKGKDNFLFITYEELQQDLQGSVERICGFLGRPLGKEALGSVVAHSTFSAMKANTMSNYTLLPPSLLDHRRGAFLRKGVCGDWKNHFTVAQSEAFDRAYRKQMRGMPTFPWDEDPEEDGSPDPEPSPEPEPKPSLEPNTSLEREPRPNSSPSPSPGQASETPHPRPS

SULT2A1 = molecular target: T2, SULT2A1 (Homo sapiens, UniProt Q06520); assay: Initial-rate 1-HP sulfonation inhibition; type: biochemical
T2 sequence (Q06520 1-285): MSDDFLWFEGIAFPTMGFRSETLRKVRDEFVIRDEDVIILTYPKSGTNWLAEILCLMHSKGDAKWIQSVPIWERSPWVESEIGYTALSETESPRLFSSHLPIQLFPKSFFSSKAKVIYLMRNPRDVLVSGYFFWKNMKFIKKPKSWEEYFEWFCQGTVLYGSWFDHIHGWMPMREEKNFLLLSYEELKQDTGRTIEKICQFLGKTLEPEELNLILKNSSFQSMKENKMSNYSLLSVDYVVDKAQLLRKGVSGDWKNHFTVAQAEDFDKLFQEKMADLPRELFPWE

[2] = molecular target: T3, SULT2B1b C81S, C225S, C278S, S347D (Homo sapiens, UniProt O00204, C225S/C278S/C81S/S347D); assay: Initial-rate parameters, non DTNB-reactive scaffold; type: biochemical
T3 sequence (O00204 1-365 C81S/C225S/C278S/S347D): T1 sequence (O00204 1-365) with C81S, C225S, C278S, S347D

[3] = molecular target: T4, SULT2B1b S347D spin-labeled at residue 171 (Homo sapiens, UniProt O00204, C225S/C278S/C81S/S347D/T171C); assay: Initial-rate parameters, spin-labeled mutant 171; type: biochemical
T4 sequence (O00204 1-365 C81S/T171C/C225S/C278S/S347D): T1 sequence (O00204 1-365) with C81S, T171C, C225S, C278S, S347D

[4] = molecular target: T5, SULT2B1b S347D spin-labeled at residue 247 (Homo sapiens, UniProt O00204, C225S/C278S/C81S/S247C/S347D); assay: Initial-rate parameters, spin-labeled mutant 247; type: biochemical
T5 sequence (O00204 1-365 C81S/C225S/S247C/C278S/S347D): T1 sequence (O00204 1-365) with C81S, C225S, S247C, C278S, S347D

SULT2B1b, S347D, W98A = molecular target: T6, SULT2B1b, S347D, W98A (Homo sapiens, UniProt O00204, S347D/W98A); assay: Initial-rate parameters, direct-contact mutant W98A
T6 sequence (O00204 1-365 W98A/S347D): T1 sequence (O00204 1-365) with W98A, S347D

SULT2B1b S347D = molecular target: T7, SULT2B1b S347D (Homo sapiens, UniProt O00204, S347D); assay: Initial-rate 1-HP sulfonation
T7 sequence (O00204 1-365 S347D): T1 sequence (O00204 1-365) with S347D

In the case of `O=c1c(O)c(-c2ccc(O)c(O)c2)oc2cc(O)cc(O)c12` [quercetin], the “α WT (quercetin)” value [1] is reported as 0.08 ± 0.01, the inhibition by quercetin (SULT2A1) is reported as “not inhibited” and the inhibition by quercetin (SULT2A1; up to 100 μM quercetin) is reported as “No inhibition was detected”. It also gave a Ki [2] of 0.3 µM, a Ki [3] of 0.35 µM and a Ki [4] of 0.32 µM. For the same molecule, the Ki (SULT2B1b, S347D, W98A) was 5.3 µM, the “quercetin affinity, SULT2B1b relative to SULT1A1” value (SULT2B1b S347D; affinity less for SULT2B1b than SULT1A1) was ~ 68 fold and the “slowing of turnover at saturating quercetin” value (SULT2B1b S347D; at saturation) was ~ 13 fold. For the same molecule, the “α (fraction of enzyme turnover at saturating inhibitor), quercetin” value (SULT2B1b S347D; saturating PAPS and 1-HP, tag-cleaved enzyme) was 0.08 ± 0.01 and the “turnover at saturating quercetin” value (SULT2B1b S347D; saturating quercetin) was 0.20 ± 0.02 s⁻¹.
